From the kinase profiling compilation of Christmann-Franck et al. (2016) come the findings set out here.

One test deals with FES (human) (UniProt P07332). Briefly: Z-Lyte, FRET.
A further test deals with HIPK4 (human) (UniProt Q8NE63). Briefly: KINOMEscan competition binding. To be noted: compound 10.0 µM.
The target of the next test is NEK11 (human) (UniProt Q8NG66). Briefly: KINOMEscan competition binding. To be noted: compound 10.0 µM.
The target of another test is CSNK1A1L (human) (UniProt Q8N752). Briefly: KINOMEscan competition binding. To be noted: compound 10.0 µM.
Another test has as its target SBK1 (human) (UniProt Q52WX2). Briefly: KINOMEscan competition binding. To be noted: compound 10.0 µM.
Another test has as its target PKN3 (M.tuberculosis) (UniProt Q6P5Z2). Briefly: KINOMEscan competition binding. The settings on record: compound 10.0 µM.
A further test addresses TAOK2 (human) (UniProt Q9UL54). Briefly: KINOMEscan competition binding. To be noted: compound 10.0 µM.
The target of the next test is HIPK3 (human) (UniProt Q9H422). Briefly: KINOMEscan competition binding. To be noted: compound 10.0 µM.
In the next test the target is PRKCI (human) (UniProt P41743). Briefly: KINOMEscan competition binding. The settings on record: compound 10.0 µM.
The target in a further test is TRPM6 (human) (UniProt Q9BX84). Briefly: KINOMEscan competition binding. The settings on record: compound 10.0 µM.
A further test deals with EIF2AK1 (human) (UniProt Q9BQI3). Briefly: KINOMEscan competition binding. To be noted: compound 10.0 µM.
Another test deals with EPHB6 (human) (UniProt O15197). Briefly: KINOMEscan competition binding. The settings on record: compound 10.0 µM.
A further test addresses HIPK2 (human) (UniProt Q9H2X6). Briefly: KINOMEscan competition binding. The settings on record: compound 10.0 µM.
For the next test, the target named is GRK4 (human) (UniProt P32298). Briefly: KINOMEscan competition binding. The settings on record: compound 10.0 µM.
In another test the target is SNRK (human) (UniProt Q9NRH2). Briefly: KINOMEscan competition binding. To be noted: compound 10.0 µM.
The next test deals with PIP5K1C (human) (UniProt O60331). Briefly: KINOMEscan competition binding. The settings on record: compound 10.0 µM.
For a further test, the target named is SGK3 (human) (UniProt Q96BR1). Briefly: KINOMEscan competition binding. The settings on record: compound 10.0 µM.
The target of another test is ROCK1 (human) (UniProt Q13464). Briefly: KINOMEscan competition binding. The settings on record: compound 10.0 µM.
Test [1] concerns PIK3CA (human), P42336 [H1047L]. Briefly: KINOMEscan competition binding. The settings on record: compound 10.0 µM.
A further test deals with OXSR1 (human) (UniProt O95747). Briefly: KINOMEscan competition binding. To be noted: compound 10.0 µM.
The target in a further test is MARK3 (human) (UniProt P27448). Briefly: KINOMEscan competition binding. The settings on record: compound 10.0 µM.
The next test deals with GRK1 (human) (UniProt Q15835). Briefly: KINOMEscan competition binding. The settings on record: compound 10.0 µM.
The next test has as its target MAP2K7 (human) (UniProt O14733). Briefly: KINOMEscan competition binding. The settings on record: compound 10.0 µM.
A further test concerns the target CDK4 CCND1 (human) (UniProt P11802+P24385). Briefly: KINOMEscan competition binding. To be noted: compound 10.0 µM.
The target of the next test is SGK110 (human) (UniProt P0C264). Briefly: KINOMEscan competition binding. To be noted: compound 10.0 µM.
The next test concerns the target PIP4K2C (human) (UniProt Q8TBX8). Briefly: KINOMEscan competition binding. The settings on record: compound 10.0 µM.
Another test addresses HUNK (human) (UniProt P57058). Briefly: KINOMEscan competition binding. The settings on record: compound 10.0 µM.
For a further test, the target named is MAST1 (human) (UniProt Q9Y2H9). Briefly: KINOMEscan competition binding. The settings on record: compound 10.0 µM.
Test [2] relates to KIT (human), P10721 [D816H]. Briefly: KINOMEscan competition binding. The settings on record: compound 10.0 µM.
The target in a further test is MTOR (human) (UniProt P42345). Briefly: KINOMEscan competition binding. To be noted: compound 10.0 µM.
The subject of test [3] is PIK3CA (human), P42336 [H1047Y]. Briefly: KINOMEscan competition binding. The settings on record: compound 10.0 µM.
The next test deals with CDKL1 (human) (UniProt Q00532). Briefly: KINOMEscan competition binding. To be noted: compound 10.0 µM.
Another test addresses DYRK1A (human) (UniProt Q13627). Briefly: KINOMEscan competition binding. The settings on record: compound 10.0 µM.
A further test deals with PIK3C2G (human) (UniProt O75747). Briefly: KINOMEscan competition binding. The settings on record: compound 10.0 µM.
The next test has as its target NIM1 (human) (UniProt Q8IY84). Briefly: KINOMEscan competition binding. The settings on record: compound 10.0 µM.
For the next test, the target named is CASK (human) (UniProt O14936). Briefly: KINOMEscan competition binding. To be noted: compound 10.0 µM.
In the next test the target is CDKL5 (human) (UniProt O76039). Briefly: KINOMEscan competition binding. To be noted: compound 10.0 µM.
The target of the next test is STK38 (human) (UniProt Q15208). Briefly: KINOMEscan competition binding. The settings on record: compound 10.0 µM.
The next test deals with IRAK1 (human) (UniProt P51617). Briefly: KINOMEscan competition binding. To be noted: compound 10.0 µM.
Test [4] deals with ABL1 (human), P00519 [T315I]. Briefly: KINOMEscan competition binding. The settings on record: compound 10.0 µM.
The test system of test [5] is ABL1 (human), P00519 [Q252H]. Briefly: KINOMEscan competition binding. The settings on record: compound 10.0 µM.
Test [6] has as its system ABL1 (human), P00519 [F317I]. Briefly: KINOMEscan competition binding. To be noted: compound 10.0 µM.

Sequence of FES (human) (P07332 whole entry, looked up): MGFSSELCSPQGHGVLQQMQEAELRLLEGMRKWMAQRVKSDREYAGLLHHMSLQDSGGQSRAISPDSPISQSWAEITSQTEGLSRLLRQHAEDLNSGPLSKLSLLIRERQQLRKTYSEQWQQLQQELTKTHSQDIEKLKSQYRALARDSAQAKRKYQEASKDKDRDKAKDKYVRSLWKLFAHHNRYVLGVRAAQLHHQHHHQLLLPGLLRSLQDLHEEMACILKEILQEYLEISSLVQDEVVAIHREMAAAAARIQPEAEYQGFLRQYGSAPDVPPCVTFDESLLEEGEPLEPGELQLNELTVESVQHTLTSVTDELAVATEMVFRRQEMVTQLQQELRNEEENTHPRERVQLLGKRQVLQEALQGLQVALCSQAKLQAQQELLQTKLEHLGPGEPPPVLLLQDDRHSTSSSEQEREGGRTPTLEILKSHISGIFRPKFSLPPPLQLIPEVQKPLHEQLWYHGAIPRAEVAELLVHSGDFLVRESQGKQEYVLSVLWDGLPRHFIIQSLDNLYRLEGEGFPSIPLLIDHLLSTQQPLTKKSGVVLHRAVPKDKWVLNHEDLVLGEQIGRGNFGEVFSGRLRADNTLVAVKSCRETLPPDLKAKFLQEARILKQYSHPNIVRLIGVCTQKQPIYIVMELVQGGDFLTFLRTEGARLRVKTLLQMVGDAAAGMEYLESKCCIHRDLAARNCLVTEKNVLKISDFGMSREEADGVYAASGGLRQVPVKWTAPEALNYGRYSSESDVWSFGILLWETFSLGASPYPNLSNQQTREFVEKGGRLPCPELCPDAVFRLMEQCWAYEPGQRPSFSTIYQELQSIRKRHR
Sequence of GRK1 (human) (Q15835 whole entry, looked up): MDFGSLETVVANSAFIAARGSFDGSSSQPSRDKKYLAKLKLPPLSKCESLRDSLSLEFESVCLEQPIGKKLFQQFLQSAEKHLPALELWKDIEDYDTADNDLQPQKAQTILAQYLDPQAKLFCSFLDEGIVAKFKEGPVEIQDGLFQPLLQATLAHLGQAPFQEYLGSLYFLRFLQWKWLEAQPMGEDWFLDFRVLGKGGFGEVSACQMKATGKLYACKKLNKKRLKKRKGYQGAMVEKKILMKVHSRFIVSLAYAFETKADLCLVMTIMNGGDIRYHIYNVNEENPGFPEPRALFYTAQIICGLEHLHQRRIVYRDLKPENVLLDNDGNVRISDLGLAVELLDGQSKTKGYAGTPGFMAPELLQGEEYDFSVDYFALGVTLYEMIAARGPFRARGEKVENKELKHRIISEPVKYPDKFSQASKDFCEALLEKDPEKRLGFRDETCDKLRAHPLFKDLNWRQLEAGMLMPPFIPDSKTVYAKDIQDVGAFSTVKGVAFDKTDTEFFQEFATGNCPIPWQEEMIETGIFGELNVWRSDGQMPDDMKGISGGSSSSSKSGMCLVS
Sequence of CDKL1 (human) (Q00532 whole entry, looked up): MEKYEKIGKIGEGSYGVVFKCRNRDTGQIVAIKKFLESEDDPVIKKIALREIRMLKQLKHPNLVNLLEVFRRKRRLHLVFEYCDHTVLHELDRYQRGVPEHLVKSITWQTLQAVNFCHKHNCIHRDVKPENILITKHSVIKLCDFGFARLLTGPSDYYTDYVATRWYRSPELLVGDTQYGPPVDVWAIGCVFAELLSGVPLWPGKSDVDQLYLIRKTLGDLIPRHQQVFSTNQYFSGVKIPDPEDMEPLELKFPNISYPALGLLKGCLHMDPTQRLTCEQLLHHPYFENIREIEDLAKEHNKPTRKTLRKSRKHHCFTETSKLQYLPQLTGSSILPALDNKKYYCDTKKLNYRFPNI
Sequence of STK38 (human) (Q15208 whole entry, looked up): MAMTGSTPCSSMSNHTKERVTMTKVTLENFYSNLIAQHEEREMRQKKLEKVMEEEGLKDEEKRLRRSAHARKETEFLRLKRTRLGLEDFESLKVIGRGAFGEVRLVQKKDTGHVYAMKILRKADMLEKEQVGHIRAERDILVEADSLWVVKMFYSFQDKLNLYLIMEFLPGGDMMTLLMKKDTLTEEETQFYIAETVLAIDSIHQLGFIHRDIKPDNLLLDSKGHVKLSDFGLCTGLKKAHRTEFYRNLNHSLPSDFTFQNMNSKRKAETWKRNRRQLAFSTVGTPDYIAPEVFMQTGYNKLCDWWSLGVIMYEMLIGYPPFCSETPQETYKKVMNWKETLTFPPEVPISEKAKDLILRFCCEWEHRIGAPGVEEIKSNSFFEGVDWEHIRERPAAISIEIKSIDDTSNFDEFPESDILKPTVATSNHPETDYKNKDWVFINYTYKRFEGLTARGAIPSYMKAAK
Sequence of SGK3 (human) (Q96BR1 whole entry, looked up): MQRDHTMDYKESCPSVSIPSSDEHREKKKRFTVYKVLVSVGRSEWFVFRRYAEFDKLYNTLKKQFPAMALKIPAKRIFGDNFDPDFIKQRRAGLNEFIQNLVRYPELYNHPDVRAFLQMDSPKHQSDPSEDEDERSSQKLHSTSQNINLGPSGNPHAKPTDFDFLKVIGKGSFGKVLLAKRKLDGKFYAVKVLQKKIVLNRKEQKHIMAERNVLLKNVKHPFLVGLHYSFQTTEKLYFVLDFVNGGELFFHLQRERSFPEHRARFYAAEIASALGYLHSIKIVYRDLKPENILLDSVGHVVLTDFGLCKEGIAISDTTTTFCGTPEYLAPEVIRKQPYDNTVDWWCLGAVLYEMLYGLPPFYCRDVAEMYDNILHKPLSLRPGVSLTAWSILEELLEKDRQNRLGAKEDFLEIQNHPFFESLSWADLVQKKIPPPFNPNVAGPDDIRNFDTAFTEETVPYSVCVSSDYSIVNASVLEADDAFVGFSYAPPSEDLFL
Sequence of MARK3 (human) (P27448 whole entry, looked up): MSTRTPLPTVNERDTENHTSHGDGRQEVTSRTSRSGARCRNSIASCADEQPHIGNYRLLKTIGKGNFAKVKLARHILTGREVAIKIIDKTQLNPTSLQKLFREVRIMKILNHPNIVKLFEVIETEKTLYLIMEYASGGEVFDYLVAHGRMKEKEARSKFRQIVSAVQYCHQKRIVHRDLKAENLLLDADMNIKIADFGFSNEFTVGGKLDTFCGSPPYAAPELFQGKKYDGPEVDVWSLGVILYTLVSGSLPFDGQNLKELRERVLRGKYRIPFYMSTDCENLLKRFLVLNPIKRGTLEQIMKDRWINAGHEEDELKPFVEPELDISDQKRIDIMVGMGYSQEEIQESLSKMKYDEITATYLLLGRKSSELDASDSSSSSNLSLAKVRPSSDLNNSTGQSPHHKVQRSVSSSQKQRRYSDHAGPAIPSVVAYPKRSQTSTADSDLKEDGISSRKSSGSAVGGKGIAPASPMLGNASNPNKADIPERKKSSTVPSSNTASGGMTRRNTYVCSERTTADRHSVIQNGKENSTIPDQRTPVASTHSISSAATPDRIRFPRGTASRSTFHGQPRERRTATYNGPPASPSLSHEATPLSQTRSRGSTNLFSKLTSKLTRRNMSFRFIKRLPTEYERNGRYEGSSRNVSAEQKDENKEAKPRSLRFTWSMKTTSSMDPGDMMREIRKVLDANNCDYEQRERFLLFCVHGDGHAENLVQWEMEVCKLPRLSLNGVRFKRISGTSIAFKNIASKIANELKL
Sequence of MAP2K7 (human) (O14733 whole entry, looked up): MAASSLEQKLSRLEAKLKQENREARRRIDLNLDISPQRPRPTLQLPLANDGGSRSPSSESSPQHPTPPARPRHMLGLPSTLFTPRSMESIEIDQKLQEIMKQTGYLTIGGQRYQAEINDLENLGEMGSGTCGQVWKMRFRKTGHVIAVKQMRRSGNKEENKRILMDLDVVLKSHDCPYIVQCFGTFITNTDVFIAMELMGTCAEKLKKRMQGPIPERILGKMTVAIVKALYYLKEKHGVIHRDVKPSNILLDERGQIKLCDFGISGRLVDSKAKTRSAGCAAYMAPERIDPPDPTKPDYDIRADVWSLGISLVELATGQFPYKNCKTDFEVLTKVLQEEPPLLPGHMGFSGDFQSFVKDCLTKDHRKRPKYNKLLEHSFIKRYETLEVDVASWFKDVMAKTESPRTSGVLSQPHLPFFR
Sequence of SGK110 (human) (P0C264 whole entry, looked up): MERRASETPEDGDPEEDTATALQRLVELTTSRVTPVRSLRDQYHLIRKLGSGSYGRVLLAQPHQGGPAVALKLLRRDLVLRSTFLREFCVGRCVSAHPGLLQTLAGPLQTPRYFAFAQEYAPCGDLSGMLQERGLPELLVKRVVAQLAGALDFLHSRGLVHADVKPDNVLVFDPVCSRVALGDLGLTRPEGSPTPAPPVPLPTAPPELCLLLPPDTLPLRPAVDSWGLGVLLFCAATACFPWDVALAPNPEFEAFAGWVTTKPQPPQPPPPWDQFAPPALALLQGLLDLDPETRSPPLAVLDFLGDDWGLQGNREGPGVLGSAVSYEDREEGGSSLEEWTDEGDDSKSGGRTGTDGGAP
Sequence of HIPK4 (human) (Q8NE63 whole entry, looked up): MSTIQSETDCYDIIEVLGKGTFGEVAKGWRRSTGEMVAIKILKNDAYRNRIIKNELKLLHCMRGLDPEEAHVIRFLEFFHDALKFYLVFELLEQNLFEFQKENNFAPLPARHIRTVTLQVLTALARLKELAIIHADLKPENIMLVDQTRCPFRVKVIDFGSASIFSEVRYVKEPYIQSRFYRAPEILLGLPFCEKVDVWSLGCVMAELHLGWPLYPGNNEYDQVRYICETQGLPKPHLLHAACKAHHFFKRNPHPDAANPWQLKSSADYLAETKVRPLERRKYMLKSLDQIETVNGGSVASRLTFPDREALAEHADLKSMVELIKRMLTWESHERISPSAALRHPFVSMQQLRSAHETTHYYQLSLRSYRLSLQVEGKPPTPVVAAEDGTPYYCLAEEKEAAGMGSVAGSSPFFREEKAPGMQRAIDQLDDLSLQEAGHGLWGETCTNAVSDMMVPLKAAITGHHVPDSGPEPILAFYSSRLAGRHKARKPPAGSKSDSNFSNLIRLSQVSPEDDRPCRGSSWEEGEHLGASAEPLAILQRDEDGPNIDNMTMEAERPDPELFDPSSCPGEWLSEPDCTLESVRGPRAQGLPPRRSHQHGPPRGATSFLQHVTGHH

The term IC50 denotes the concentration that gives 50% inhibition. Read a low IC50 as inhibition by little substance. As to `CCN1CCN(Cc2ccc(NC(=O)c3ccc(C)c(/C=C/c4cnc(Nc5cc(N6CCNCC6)nc(C)n5)cn4)c3)cc2C(F)(F)F)CC1`, the IC50 at FES (human) was found to be 224 µM. The kinase still bound, per cent of control on HIPK4 (human) was found to be 15%; on NEK11 (human) it was 40%; on CSNK1A1L (human), 99%; on SBK1 (human) it was 82%; at PKN3 (M.tuberculosis) it was 100%; at TAOK2 (human) it was 5.7%. Further, the kinase still bound, per cent of control was found to be 48% at HIPK3 (human); 74% at PRKCI (human); 67% at TRPM6 (human); 100% on EIF2AK1 (human); 1.6% at EPHB6 (human); 49% on HIPK2 (human). The kinase still bound, per cent of control stood at 80% on GRK4 (human); 84% on SNRK (human); 65% on PIP5K1C (human); 80% on SGK3 (human); 100% on ROCK1 (human); 97% in test [1]. For the same molecule, the kinase still bound, per cent of control at OXSR1 (human) was found to be 76%; at MARK3 (human) it was 58%; on GRK1 (human), 100%; on MAP2K7 (human), 30%; at CDK4 CCND1 (human) it was 100%; on SGK110 (human), 100%. The kinase still bound, per cent of control on PIP4K2C (human) was found to be 61%; at HUNK (human), 93%; on MAST1 (human) it was 87%; in test [2] it was 20%; on MTOR (human), 100%; in [3], 68%. Further, the kinase still bound, per cent of control on CDKL1 (human) worked out at 61%; at DYRK1A (human) it was 44%; on PIK3C2G (human) it was 87%; at NIM1 (human), 100%; at CASK (human), 72%; at CDKL5 (human), 13%. The kinase still bound, per cent of control at STK38 (human) is 79%; at IRAK1 (human), 50%.

At FES (human), `CCN1CCN(Cc2ccc(NC(=O)c3ccc(C)c(Oc4ccnc5[nH]ccc45)c3)cc2C(F)(F)F)CC1` yielded a half-maximal inhibitory concentration (IC50) of 298 µM. In addition, the figures for the kinase still bound, per cent of control in test [4], in test [5] and in [6] were 0%, 0.4% and 0.05%, respectively.

On to `COc1cc(N2CCC(N3CCN(C)CC3)CC2)ccc1Nc1ncc(Cl)c(Nc2ccccc2S(=O)(=O)C(C)C)n1`, for which the results for the kinase still bound, per cent of control in test [4], in test [5] and in test [6] were 0.1%, 2.2% and 0.45%, respectively.

In turn, `CCOc1cc(N2CCC(N3CCCCC3)CC2)ccc1Nc1nc(Nc2ccccc2S(=O)(=O)C(C)C)c2cn[nH]c2n1` showed an IC50 at FES (human) of 67 µM. Also, the kinase still bound, per cent of control on HIPK4 (human) was 44%; at NEK11 (human) it was 100%; at CSNK1A1L (human), 78%; at SBK1 (human), 57%; at PKN3 (M.tuberculosis), 75%; on TAOK2 (human), 66%. In addition, the kinase still bound, per cent of control came out at 79% at HIPK3 (human); 100% at PRKCI (human); 100% at TRPM6 (human); 100% at EIF2AK1 (human); 71% on EPHB6 (human); 89% at HIPK2 (human). For the same molecule, the kinase still bound, per cent of control on GRK4 (human) is 92%; on SNRK (human) it was 40%; on PIP5K1C (human) it was 82%; at SGK3 (human), 92%; on ROCK1 (human), 4.8%; in test [1], 100%. The kinase still bound, per cent of control was 0.05% at OXSR1 (human); 100% at MARK3 (human); 98% at GRK1 (human); 78% at MAP2K7 (human); 82% on CDK4 CCND1 (human); 100% on SGK110 (human). Also, the kinase still bound, per cent of control is 100% at PIP4K2C (human); 100% at HUNK (human); 46% at MAST1 (human); 73% in [2]; 86% at MTOR (human); 100% in test [3]. Further, the kinase still bound, per cent of control on CDKL1 (human) is 100%; at DYRK1A (human) it was 63%; on PIK3C2G (human), 100%; at NIM1 (human) it was 100%; at CASK (human), 100%; at CDKL5 (human), 100%. Besides, the kinase still bound, per cent of control worked out at 98% on STK38 (human) and 93% on IRAK1 (human).
